The source of these data is patent US7504393B2, “Benzylamine analogues” (priority 2001, dated 2009).

Counter-ions that a name gives are not always drawn. Like-named read-outs stand apart in the source and are kept apart here.

In one experiment the target is T1, acetylcholinesterase (Mus musculus, UniProt P21836).
T1 construct: phosphate buffer solution containing the brain homogenate; from tissue; host or cells: mouse whole brain homogenate
T1 sequence (P21836 32-614): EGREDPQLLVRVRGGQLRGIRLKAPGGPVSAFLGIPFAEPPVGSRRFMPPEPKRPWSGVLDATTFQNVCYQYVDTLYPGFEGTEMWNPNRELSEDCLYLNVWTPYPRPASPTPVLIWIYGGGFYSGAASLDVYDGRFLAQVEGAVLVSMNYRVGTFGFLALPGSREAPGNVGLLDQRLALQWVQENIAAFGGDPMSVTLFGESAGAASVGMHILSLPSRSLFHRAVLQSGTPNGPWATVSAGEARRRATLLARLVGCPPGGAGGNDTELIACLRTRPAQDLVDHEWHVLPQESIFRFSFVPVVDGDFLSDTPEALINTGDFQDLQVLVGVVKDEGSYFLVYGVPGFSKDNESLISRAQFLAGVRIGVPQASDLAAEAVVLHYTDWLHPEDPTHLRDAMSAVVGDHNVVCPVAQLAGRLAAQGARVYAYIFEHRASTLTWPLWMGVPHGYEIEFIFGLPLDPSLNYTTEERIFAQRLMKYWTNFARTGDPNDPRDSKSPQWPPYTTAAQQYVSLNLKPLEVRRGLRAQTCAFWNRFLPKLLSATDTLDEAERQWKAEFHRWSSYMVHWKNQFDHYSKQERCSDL
The experiment can be described thus: biochemical.

The target in another experiment is T2, serotonin re-uptake (Rattus norvegicus, UniProt P31652).
T2 construct: synaptosome prepared from rat whole brains except the cerebellums; from tissue; host or cells: synaptosomes from rat whole brain except the cerebellum
In words: Serotonin re-uptake inhibitory activity (synaptosome, [3H]5-HT). The conditions noted are these: synaptosome from rat whole brain except cerebellum; [3H]5-HT, 37° C.; read-out: IC50 (nM) Serotonin re-uptake inhibitory activity. The class given is biochemical. The procedure:
Serotonin re-uptake inhibitory activity was determined using synaptosome prepared from rat whole brains except the cerebellums. Briefly, 10 μl of DMSO solution-dissolved test substance (control group; DMSO solution alone) was added to 1 ml of synaptosome and incubated for 5 min at 37° C. (in the control, DMSO alone was added to the synaptosome and incubated at 4° C.). Furthermore, 10 μl of [^3H]5-HT solution (final concentration: 10 μM as a total concentration of 5-HT, 100 nM as [^3H]5-HT) was added and incubated for 5 min at 37° C. Then 4 ml of ice-cold saline was added to stop the response. The response solution was filtered, 4 ml of saline was added, and the solution was once again filtered. Furthermore, 5 ml of Pico-Fluor was added, then ^3H levels on filter papers were counted by a liquid scintillation counter. Concentrations of test compounds to inhibit serotonin re-uptake by 50% (IC50) were calculated.

T2 sequence (P31652 whole entry): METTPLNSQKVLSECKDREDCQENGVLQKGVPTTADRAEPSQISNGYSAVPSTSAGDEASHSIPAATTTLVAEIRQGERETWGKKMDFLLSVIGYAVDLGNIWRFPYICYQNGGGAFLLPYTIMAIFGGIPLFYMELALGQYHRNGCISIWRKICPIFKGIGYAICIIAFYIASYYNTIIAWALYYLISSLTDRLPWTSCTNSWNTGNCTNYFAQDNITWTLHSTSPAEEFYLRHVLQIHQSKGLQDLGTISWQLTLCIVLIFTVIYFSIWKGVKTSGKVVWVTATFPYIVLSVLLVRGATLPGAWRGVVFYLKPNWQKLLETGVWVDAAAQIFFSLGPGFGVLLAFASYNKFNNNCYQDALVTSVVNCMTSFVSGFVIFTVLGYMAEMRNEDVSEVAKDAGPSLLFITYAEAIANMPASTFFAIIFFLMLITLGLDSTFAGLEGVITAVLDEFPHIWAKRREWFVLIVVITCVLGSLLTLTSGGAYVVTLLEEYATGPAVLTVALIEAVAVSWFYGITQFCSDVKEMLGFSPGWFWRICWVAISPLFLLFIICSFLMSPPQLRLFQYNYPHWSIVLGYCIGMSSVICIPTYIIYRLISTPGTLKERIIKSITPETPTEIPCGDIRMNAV

For `CN[C@@H](CCOc1ccc(F)c(F)c1)c1ccc(OC(=O)N(C)C)cc1` [Test Compound 162, (S)-4-[3-(3,4-Difluorophenoxy)-1-methylaminopropyl]phenyl dimethylcarbamate hydrochloride], the IC50 against acetylcholinesterase is 790 nM; on serotonin re-uptake, 594 nM.
The matching figures for `CNC(CCOc1cccc2ccccc12)c1ccc(OC(=O)N(C)C)cc1` (stereo not drawn) [Test Compound 179, 4-[3-(Naphthalen-1-yloxy)-1-methylaminopropyl]phenyl dimethylcarbamate hydrochloride]: 372 nM and 86 nM.
On to `CNC(CCOc1ccc2ncccc2c1)c1ccc(OC(=O)N(C)C)cc1` (stereo not drawn) [Test Compound 180, 4-[3-(Quinolin-6-yloxy)-1-methylaminopropyl]phenyl dimethylcarbamate hydrochloride], for which the values for the IC50 on acetylcholinesterase and at serotonin re-uptake were 111 nM and 104 nM, respectively.
In the case of `CN(C)C(=O)Oc1ccc(C(CCOc2c(F)c(F)c(F)c(F)c2F)N(C)C)cc1` (stereo not drawn) [Test Compound 181, 4-[3-(Pentafluorophenoxy)-1-dimethylaminopropyl]phenyl dimethylcarbamate hydrochloride], the IC50 at acetylcholinesterase amounted to 198 nM; at serotonin re-uptake, 44 nM.
Taken in the same sequence, the figures for `CN[C@@H](CCOc1ccc([N+](=O)[O-])cc1)c1ccc(OC(=O)N(C)C)c(C)c1` [Test Compound 183, (S)-4-[3-(4-Nitrophenoxy)-1-methylaminopropyl]-2-methylphenyl dimethylcarbamate hydrochloride] were 26 nM and 67 nM.
For `CN[C@H](CCOc1ccc([N+](=O)[O-])cc1)c1ccc(OC(=O)N(C)C)c(C)c1` [Test Compound 184, (R)-4-[3-(4-Nitrophenoxy)-1-methylaminopropyl]-2-methylphenyl dimethylcarbamate hydrochloride], the results for the IC50 against acetylcholinesterase and on serotonin re-uptake were 56 nM and 49 nM, respectively.
Regarding `CN(C)C(=O)Oc1ccc2c(c1)CCN(C)C2CCOc1ccc([N+](=O)[O-])cc1` (stereo not drawn) [Test Compound 187, 2-Methyl-1-[2-(4-nitrophenoxy) -ethyl]-1,2,3,4-tetrahydroisoquinolin-6-yl dimethylcarbamate hydrochloride], the IC50 against acetylcholinesterase amounted to 11 nM; at serotonin re-uptake, 940 nM.
Taken in the same sequence, the figures for `Cc1cc(OCCC2c3ccc(OC(=O)N(C)C)cc3CCN2C)ccc1Cl` (stereo not drawn) [Test Compound 188, 2-Methyl-1-[2-(4-chloro-3-methylphenoxy)-ethyl]-1,2,3,4-tetrahydroisoquinolin-6-yl dimethylcarbamate hydrochloride] were 53 nM and 150 nM.
For the molecule `CN(C)C(=O)Oc1ccc2c(c1)CCN(C)C2CCOc1ccc([N+](=O)[O-])cc1Cl` (stereo not drawn) [Test Compound 189, 2-Methyl-1-[2-(2-chloro-4-nitrophenoxy)-ethyl]-1,2,3,4-tetrahydroisoquinolin-6-yl dimethylcarbamate hydrochloride], the IC50 at acetylcholinesterase is 6 nM; on serotonin re-uptake it was 300 nM.
The matching figures for `CN(C)C(=O)Oc1ccc2c(c1)CCN(C)[C@@H]2CCOc1ccc([N+](=O)[O-])cc1Cl` [Test Compound 190, 2-Methyl-1-(R)-[2-(2-chloro-4-nitrophenoxy)-ethyl]-1,2,3,4-tetrahydroisoquinolin-6-yl dimethylcarbamate hydrochloride]: 12 nM and 460 nM.
Taken in the same sequence, the figures for `CN(C)C(=O)Oc1ccc2c(c1)C(CCOc1ccc(Cl)cc1)N(C)CC2` (stereo not drawn) [Test Compound 191, 2-Methyl-1-[2-(4-chlorophenoxy)-ethyl]-1,2,3,4-tetrahydroisoquinolin-7-yl dimethylcarbamate hydrochloride] were 265 nM and 520 nM.
`CN(C)C(=O)Oc1ccc2c(c1)CCCN(C)C2CCOc1ccc([N+](=O)[O-])cc1Cl` (stereo not drawn) [Test Compound 193, 2-Methyl-1-[2-(2-chloro-4-nitrophenoxy)-ethyl]-1,3,4,5-tetrahydro-1H-benzo[c]azepin-7-yl dimethylcarbamate hydrochloride]: the IC50 is 24 nM on acetylcholinesterase (mouse whole brain homogenate, acetylthiocholine/DTNB, absorbance 412 nm, read-out: IC50 (nM) Acetylcholinesterase inhibitory activity) and 680 nM at serotonin re-uptake.
As for `Cc1cc(OCCC2c3ccc(OC(=O)N(C)C)cc3C=CCN2C)ccc1Cl` (stereo not drawn) [Test Compound 194, 2-Methyl-1-[2-(4-chloro-3-methylphenoxy)-ethyl]-2,3-dihydro-1H-benzo[c]azepin-7-yl dimethylcarbamate hydrochloride], the IC50 stood at 103 nM against acetylcholinesterase and 61 nM on serotonin re-uptake.
In the case of `CN(C)C(=O)Oc1ccc2c(c1)C=CCN(C)C2CCOc1ccc(F)cc1Cl` (stereo not drawn) [Test Compound 195, 2-Methyl-1-[2-(2-chloro-4-fluorophenoxy) -ethyl]-2,3-dihydro-1H-benzo[c]azepin-7-yl dimethylcarbamate hydrochloride], the IC50 stood at 50 nM against acetylcholinesterase and 44 nM on serotonin re-uptake.
The matching figures for `CNC(CCOc1ccc(Cl)c([N+](=O)[O-])c1)c1cccc(OC(=O)N(C)C)c1` (stereo not drawn) [Test Compound 203, 3-[3-(4-Chloro-3-nitrophenoxy)-1-methylaminopropyl]phenyl dimethylcarbamate hydrochloride]: 49 nM and 40 nM.
